The source of these data is US6184422A, “Cyclohexanediol derivatives” (priority 1998, dated 2001).

Usually ED50 stands for the dose that gives a 50% effect, or the effect in half of the subjects.

pEC50: −log10 of the molar value. A value given as a limit tells only on which side of the number the result lay.

Data set [1] deals with epidermal proliferation in minipigs. Kind of data set: animal or person. To be noted: for minimal effective dose: Sus scrofa, 168 h, read-out: Effective dose (dose that increases the normal LI at least 50%); for minimal effective dose / Calcemic dose: po; for Calcemic dose: minipig, in vivo, 10080 min; for TI (ratio Calc./Eff.): oral, calcemic dose / effective dose. The method, then: Orally administered vitamin D analogs can lead to epidermal proliferation in minipigs. This skin effect is considered as indicative for an antipsoriatic potential of vitamin D analogs. […] The pigs were daily observed as to adverse effects such as behavior, mobility, stool. At day seven bromodeoxyuridine (4 mg/kg) was injected intravenously into the treated pigs and 2 hours later skin biopsies (6 mm diameter) and blood were taken for analysis. The skin biopsies were fixed in formalin, and paraffin sections were prepared using standard procedures. Using standard immuno-histochemical techniques, cells in the S-phase (DNA synthesis phase) were labelled by the binding of a specific monoclonal antibody against the thymidine analogue bromodeoxyuridine. The number of labelled epidermal cells per unit of length along the surface was taken as a measure of epidermal proliferative activity (labelings index LI). Clinical chemistry was performed using Cobas Mira.
*The effective dose is the dose that increases the normal LI at least 50%

Data set [2] is described as follows: Calcium Liability (Tolerance Test in Mice). Conditions: for MTD: mouse, in vivo, sc; for HTD/VDR: ratio HTDsc mouse (μg/kg) / VDR act ED50 (nanomolar). The source says:
1. Calcium Liability (Tolerance Test in Mice)
This test gives a global picture of calcemic liability. Profound changes in calcium homeostasis strongly affect the weight development of the animals. This parameter was used as a primary test for tolerance. […] Body weight was registered just before and at the end of a 5 day treatment period.

The target of data set [3] is T1, human VDR (Homo sapiens, UniProt P11473).
T1 construct: expressed in transfected cells; host or cells: COS cells, expression vector pSG5
T1 sequence (P11473 1-427): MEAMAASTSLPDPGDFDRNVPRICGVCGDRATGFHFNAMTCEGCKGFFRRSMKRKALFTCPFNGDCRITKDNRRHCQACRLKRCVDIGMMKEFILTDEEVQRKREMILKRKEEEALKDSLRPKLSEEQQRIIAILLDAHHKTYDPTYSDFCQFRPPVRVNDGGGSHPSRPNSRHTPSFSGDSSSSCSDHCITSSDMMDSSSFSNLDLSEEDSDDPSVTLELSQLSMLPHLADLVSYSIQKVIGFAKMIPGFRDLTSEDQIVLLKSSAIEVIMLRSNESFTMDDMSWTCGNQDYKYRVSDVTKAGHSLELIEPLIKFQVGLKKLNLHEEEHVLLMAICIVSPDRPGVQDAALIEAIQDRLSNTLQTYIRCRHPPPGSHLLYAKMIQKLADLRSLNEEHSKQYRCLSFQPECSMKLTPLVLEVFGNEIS
Kind of data set: VDR Activation (transcription activation assay in COS cells, luciferase reporter). It counts as cell-based. Conditions: COS cells cotransfected with human VDR and VDRE3/luciferase reporter; read-out: VDR act (ED50, nanomolar). The source says: In order to measure the activation of the vitamin D receptor (VDR) by vitamin D analogs in cells a transcription activation assay was used. COS cells were cotransfected with the human VDR (expressed in pSG5) and a reporter gene containing three response elements (VDRE3) from the rat osteocalcine gene, the thymidine kinase basal promoter, and the luciferase reporter gene, respectively.
In general terms: Reporter assays use an easily measured gene product as a stand-in for the process of interest.

The subject of data set [4] is epidermal thickening (acanthosis) in hairless mice. Kind of data set: The Mouse Model: epidermal thickening (acanthosis) in hairless mice. Conditions: for ED50: Mus musculus, po, read-out: ED50: dose causing half-maximal epidermal thickening; for ratio (TI) HTD/ED50: HTDpo/ED50.
Assay in data set [5]: as above
To be noted: mouse, in vivo, po.

Data set [6] can be described thus: in vivo. Conditions: mouse, po.

Consider `CC(C)(CC#CC(O)(C(F)(F)F)C(F)(F)F)CCC/C=C/C=C1C[C@@H](O)C[C@H](O)C1` [I, (E)-(1R,3R)-5-[12,12,12-trifluoro-11-hydroxy-7,7-dimethyl-11-trifluoromethyl-dodec-2-en-9-ynylidene]-cyclohexane-1,3-diol], for which, in data set [1], the minimal effective dose came to 0.036 mg/kg and the Calcemic dose is 0.2 mg/kg. For the same compound, in data set [1] (minipigs), the “TI (ratio Calc./Eff.)” value is on record as 6. Also, in data set [2], the MTD was determined as 0.333 mg/kg and the HTD/VDR is listed as 26. In data set [3], the pEC50 was 7.89. In data set [4], the ED50 is 0.8 mg/kg. Further, the “ratio (TI) HTD/ED50” value in data set [4] (hairless mice, oral) is on record as 0.125. The MTD in data set [5] was determined as 0.1 mg/kg.

In the case of `CC(C)(O)C#CCC(C)(C)CCC/C=C/C=C1C[C@@H](O)C[C@H](O)C1` [K, (10E)-(3R,5R)-12-(3,5-dihydroxy-cyclohexylidene)-6,6-dimethyl-2-methyl-dodec-10-en-3-yn-2-ol], in data set [2], the MTD was > 5 mg/kg and the HTD/VDR is on record as > 23. Besides, the pEC50 in data set [3] was 6.66.

As for `C=C1/C(=C\C=C\CCCC(C)(C)CC#CC(O)(C(F)(F)F)C(F)(F)F)C[C@@H](O)C[C@@H]1O` [J, (Z)-(1R,3S)-4-methylene-5-[(E)-12,12,12-trifluoro-11-hydroxy-7,7-dimethyl-11-trifluoromethyl-dodec-2-en-9-ynylidene]-cyclohexane-1,3-diol], in data set [1], the minimal effective dose amounted to 0.108 mg/kg and the Calcemic dose was > 0.324 mg/kg. Moreover, the “TI (ratio Calc./Eff.)” value in data set [1] (minipigs) is > 3. Also, in data set [2], the MTD was 0.31 mg/kg and the HTD/VDR was 65. In data set [3], the pEC50 is 8.32. In addition, the ED50 in data set [4] was determined as 0.7 mg/kg. Besides, the “ratio (TI) HTD/ED50” value in data set [4] (hairless mice, oral) is on record as 0.1. In data set [5], the MTD stood at 0.07 mg/kg.

For `C=C1/C(=C\C=C\CCCC(C)(C)CCCC(C)(C)O)C[C@@H](O)C[C@@H]1O` [G, (Z)-(1R,3S)-5-[(E)-11-hydroxy-7,7,11-trimethyl-dodec-2-enylidene]-4-methylene-cyclohexane-1,3-diol], in data set [2], the MTD was > 5 mg/kg and the HTD/VDR came to 45. Also, in data set [3], the pEC50 is 6.96. Besides, the ED50 in data set [4] was found to be 60 mg/kg. Also, the “ratio (TI) HTD/ED50” value in data set [4] (hairless mice, oral) worked out at 0.33. Moreover, the MTD in data set [6] was 20 mg/kg.

`CC(C)(C/C=C/C(O)(C(F)(F)F)C(F)(F)F)CCC/C=C/C=C1C[C@@H](O)C[C@H](O)C1` [D, (1R,3R)-5-[(2E,9E)-12,12,12-trifluoro-11-trifluoromethyl-11-hydroxy-7,7-dimethyl-dodeca-2,9-dienylidene]-cyclohexane-1,3-diol]: the MTD was 0.1 mg/kg in data set [2] and 0.05 mg/kg in data set [5]. Besides, the HTD/VDR in data set [2] worked out at 18. Besides, the pEC50 in data set [3] is 8.24. For the same compound, the ED50 in data set [4] was 0.5 mg/kg. Moreover, in data set [4] (hairless mice, oral), the “ratio (TI) HTD/ED50” value stood at 0.1.

Regarding `CC(C)(C/C=C\C(O)(C(F)(F)F)C(F)(F)F)CCC/C=C/C=C1C[C@@H](O)C[C@H](O)C1` [A, (1R,3R)-5-[(2E,9Z)-12,12,12-trifluoro-11-hydroxy-7,7-dimethyl-11-trifluoromethyl-dodeca-2,9-dienylidene)-cyclohexane-1,3-diol], in data set [1], the minimal effective dose amounted to 0.1 mg/kg and the Calcemic dose is 5 mg/kg. The “TI (ratio Calc./Eff.)” value in data set [1] (minipigs) was 50. Besides, in data set [2], the MTD came out at 2.5 mg/kg and the HTD/VDR worked out at 14. For the same compound, the pEC50 in data set [3] is 6.74. Further, the ED50 in data set [4] was determined as 7.5 mg/kg. Also, the “ratio (TI) HTD/ED50” value in data set [4] (hairless mice, oral) is reported as 0.13. Moreover, in data set [5], the MTD was 1 mg/kg.

Turning to `C=C1/C(=C\C=C\CCCC(C)(C)C/C=C/C(O)(C(F)(F)F)C(F)(F)F)C[C@@H](O)C[C@@H]1O` [C, (Z)-(1R,3S)-5-((2E,9E)-12,12,12-trifluoro-11-trifluoromethyl-11-hydroxy-7,7-dimethyl-dodec-2,9-dienylidene)-4-methylene-cyclohexane-1,3-diol], in data set [2], the MTD came to 0.2 mg/kg and the HTD/VDR came to 50. For the same compound, in data set [3], the pEC50 was 8.40. For the same compound, in data set [4], the ED50 stood at 0.45 mg/kg. Moreover, the “ratio (TI) HTD/ED50” value in data set [4] (hairless mice, oral) was 0.13. This compound also registered an MTD in data set [5] of 0.06 mg/kg.

As to `C=C1/C(=C\C=C\CCCC(C)(C)C/C=C\C(O)(C(F)(F)F)C(F)(F)F)C[C@@H](O)C[C@@H]1O` [B, (Z)-(1R,3S)-4-methylene-5-[(2E,9Z)-12,12,12-trifluoro-11-hydroxy-7,7-dimethyl-11-trifluoromethyl-dodeca-2,9-dienylidene]-cyclohexane-1,3-diol], in data set [1], the minimal effective dose is 1 mg/kg and the Calcemic dose was 2 mg/kg. The “TI (ratio Calc./Eff.)” value in data set [1] (minipigs) was 2. Moreover, in data set [2], the MTD is 3 mg/kg and the HTD/VDR is recorded as 60. Moreover, the pEC50 in data set [3] is 7.30. Besides, the ED50 in data set [4] came out at 3 mg/kg. For the same compound, the “ratio (TI) HTD/ED50” value in data set [4] (hairless mice, oral) was 0.13. Also, in data set [5], the MTD amounted to 0.4 mg/kg.

With `CC(C)(CCC/C=C/C=C1C[C@@H](O)C[C@H](O)C1)CCCC(O)(C(F)(F)F)C(F)(F)F` [Compound E, (1R,3R)-5-[(2E)-12,12,12-trifluoro-11-hydroxy-7,7-dimethyl-11-trifluoromethyl-dodec-2-enylidene)-cyclohexane-1,3-diol], in data set [2], the MTD was 0.1 mg/kg and the HTD/VDR is reported as 15. The pEC50 in data set [3] is 8.18. Also, the ED50 in data set [4] came to 0.2 mg/kg. The “ratio (TI) HTD/ED50” value in data set [4] (hairless mice, oral) came to 0.2. Further, in data set [5], the MTD was found to be 0.04 mg/kg.

Take `CC(C)(O)CCCC(C)(C)CCC/C=C/C=C1C[C@@H](O)C[C@H](O)C1` [H, (2E)-(1R,3R)-5-(11-hydroxy-7,7,11-trimethyl-dodeca-2-enylidene)-cyclohexane-1,3-diol]: in data set [2], the MTD is > 5 mg/kg and the HTD/VDR is 18. The pEC50 in data set [3] is 6.55.

For `C=C1/C(=C\C=C\CCCC(C)(C)CCCC(O)(C(F)(F)F)C(F)(F)F)C[C@@H](O)C[C@@H]1O` [F, (Z)-(1R,3S)-5-[(2E)-12,12,12-trifluoro-11-hydroxy-7,7-dimethyl-11-trifluoromethyl-dodec-2-enylidene]-4-methylene-cyclohexane-1,3-diol], in data set [1], the minimal effective dose came out at 0.003 mg/kg and the Calcemic dose is 0.015 mg/kg. For the same compound, in data set [1] (minipigs), the “TI (ratio Calc./Eff.)” value is listed as 5. Further, in data set [2], the MTD is 0.08 mg/kg and the HTD/VDR was determined as 20. Moreover, the pEC50 in data set [3] was 8.40. Besides, the ED50 in data set [4] came out at 0.2 mg/kg. Moreover, the “ratio (TI) HTD/ED50” value in data set [4] (hairless mice, oral) amounted to 0.4. In addition, the MTD in data set [5] turned out to be 0.08 mg/kg.

For the compound `C=C1/C(=C\C=C2/CCC[C@]3(C)[C@@H]([C@H](C)CCCC(C)(C)O)CC[C@@H]23)C[C@@H](O)C[C@@H]1O` [Calcitriol, reference compound], in data set [1], the minimal effective dose is > 0.0225 mg/kg and the Calcemic dose is 0.003 mg/kg. Also, the “epidermal hyperproliferation (in words)” value in data set [1] (minipigs, even at 9 times the dose that induces hypercalcemia) is on record as “did not induce hyperproliferation”. Further, the ED50 in data set [4] was determined as 0.5 mg/kg. For the same compound, in data set [4] (hairless mice, oral, calcitriol animals treated for three days), the “skin effects at the highest tolerated dose (in words)” value is given as “not able to elicit skin effects”.
